Measurements published in patent US20250108038A1 (priority 2023, published 2025).
Several values for one entry are separate records, joined by “and”; a condition that tells them apart may be missing. Identical values can stand only once. Entries after “also recorded” stand apart in the source; their conditions may differ.

Legend:
[1] = Stability of test articles at different pH values (SGF, SIF, PBS); format: physicochemical; conditions: 0.1 mM, 37° C., 0-120 min
Experimental: FIG. 1A. […] (final concentration 0.1 mM) and the mixture was incubated at 37° C. for 120 min. total. […] Values represent mean+SEM of n=3 separate experiments.
FIG. 1B. Stability of Compound I-4 in 3 different fluid matrices modeling 3 different body fluids: SGF (gastric, pH 2.0), SIF (upper intestinal, pH 6.0), and PBS (systemic fluid, pH 7.4). […] (final concentration 0.1 mM) and the mixture was incubated at 37° C. for 120 min. total. […] Values represent mean+SEM of n=3 separate experiments.
10 mM stock solutions of test articles were prepared in DMSO. From this stock solution, a single concentration in a 10 μL aliquot was added to three fluid matrices: SGF at pH 2.0 (gastric), SIF at pH 6.0 (upper intestine), and PBS at pH 7.4 (systemic fluid). The final volume was 1 mL (0.1 mM).
LC-MS/MS analysis of test articles was performed on a Waters Acquity UPLC system in-line with a Waters TQ-S triple quadrupole mass spectrometer via an electrospray interface.
UPLC separation of samples was performed on a Waters BEH Phenyl 2.1×50 column at 40 C. Mobile phase was 0.1% formic acid in water for mobile phase A and 0.1% formic acid in acetonitrile as mobile phase B. Gradient elution was 1% B initial, 65% B to 95% B at 2 minutes, 95% B at 4 minutes, and 1% B at 4.1 minutes. Flow rate was 0.4 mL/min and 5 μL of samples was injected.

in vivo = conditions: for plasma concentration of Compound A: after Compound I-19 single PO 6.645 mg/kg
Experimental: Dose solutions were prepared freshly on each day of studies prior to dosing.
The animals were weighed immediately prior to dosing and the dose volume was calculated individually based the obtained body weight and the nominal dose volume. […] The nominal dose volume was 10 mL/kg in both studies.
Cage side observation was performed before and after dosing as well as at each scheduled sample collection time. The observation included appearance, posture, behavior, morbidity and mortality. Abnormal findings, if any, are required to be recorded in the study record and communicated with study director, veterinarian, and Supernus if necessary.
Approximately 40 μL blood was collected at each scheduled time point from saphenous veins. The actual sample collection time was within 1 min. of the nominal time for collections prior to or at 1 hour, and within 5% of the nominal values for collections post 1 hour.
The blood samples were placed in pre-labeled micro-centrifuge tubes containing K2EDTA as anticoagulant and kept on ice before they were processed to plasma within 30 minutes of collection by centrifugation at 4° C., 3000 g for 5 minutes. The plasma samples were stored at −70±10° C. until LC-MS/MS analysis.
Plasma concentrations below the LLOQ prior to Tmax were set to zero, and those after Tmax were excluded from PK calculation. The nominal dose and the nominal sample collection time were used for the calculation. The values of plasma concentrations and PK parameters are reported to three significant figures. The average values of each treatment group are presented as mean±SD.

[2] = after Compound I-19 IP 4.061 mg/kg, average
[3] = after Compound I-19 IP 4.061 mg/kg, mean±SD
[4] = after Compound I-19 PO 6.645 mg/kg, mean±SD
[5] = single IP Compound I-19 4.061 mg/kg, male CD-1 mice, individual animals
[6] = single IP Compound I-19 4.061 mg/kg, male CD-1 mice, mean
[7] = single PO Compound I-19 6.645 mg/kg, male CD-1 mice, individual animals
[8] = single PO Compound I-19 6.645 mg/kg, male CD-1 mice, mean

Clc1ccc(C2(OCC3OCCO3)c3ccccc3C3=NCCN32)cc1 (stereo not shown) [Compound I-19]
Stability (% parent compound remaining) ([1]; PBS (systemic fluid, pH 7.4)): time-dependent decrease in the amount; also recorded: some lack of stability | Stability (% parent compound remaining) ([1]; SGF (gastric, pH 2.0)): time-dependent decrease in the LCMSMS peak area until 20 min; also recorded: some lack of stability over 15 min | AUC0-last of Compound I-19 (in vivo; IP 4.061 mg/kg, mean±SD): 482 ± 92.9 ng·h/mL | Cmax of Compound I-19 (in vivo; IP 4.061 mg/kg, mean±SD): 373 ± 101 ng/mL | MRT0-last of Compound I-19 (in vivo; IP 4.061 mg/kg, mean±SD): 69 ± 24.4 min | T1/2 of Compound I-19 (in vivo; IP 4.061 mg/kg, mean±SD): 37.9 ± 16.2 min | Tmax of Compound I-19 (in vivo; IP 4.061 mg/kg, mean±SD): 25 ± 8.64 min | AUC0-last of Compound I-19 (in vivo; PO 6.645 mg/kg, mean±SD): 2.04 ± 2.56 ng·h/mL | Cmax of Compound I-19 (in vivo; PO 6.645 mg/kg, mean±SD): 4.27 ± 3.1 ng/mL | MRT0-last of Compound I-19 (in vivo; PO 6.645 mg/kg, mean±SD): 21.9 ± 7.56 min | Tmax of Compound I-19 (in vivo; PO 6.645 mg/kg, mean±SD): 20 ± 8.64 min | MRT0-last of Compound B (in vivo; [2]): 186 min | T1/2 of Compound B (in vivo; [2]): 220 min | Tmax of Compound B (in vivo; [2]): 120 min | AUC0-last of Compound A (in vivo; [3]): 104 ± 36.7 ng·h/mL | AUC0-last of Compound B (in vivo; [3]): 120 ± 58.1 ng·h/mL | Cmax of Compound A (in vivo; [3]): 50.5 ± 20 ng/mL | Cmax of Compound B (in vivo; [3]): 30.7 ± 5.42 ng/mL | MRT0-last of Compound A (in vivo; [3]): 106 ± 27.2 min | T1/2 of Compound A (in vivo; [3]): 75 ± 18.8 min | Tmax of Compound A (in vivo; [3]): 40 ± 17.3 min | AUC0-last of Compound A (in vivo; [4]): 203 ± 45.2 ng·h/mL | Cmax of Compound A (in vivo; [4]): 158 ± 27.2 ng/mL | MRT0-last of Compound A (in vivo; [4]): 71.4 ± 4.14 min | T1/2 of Compound A (in vivo; [4]): 51.3 ± 10.4 min | Tmax of Compound A (in vivo; [4]): 20 ± 8.64 min | plasma concentration of Compound A (in vivo; 0.500 h, mean): 126 ng/mL | plasma concentration of Compound A (in vivo; 1.00 h, individual mice, 6.645 mg/kg): 123 ng/mL and 54.4 ng/mL and 83.2 ng/mL | plasma concentration of Compound A (in vivo; 1.00 h, mean): 86.9 ng/mL | plasma concentration of Compound A (in vivo; 2.00 h, individual mice, 6.645 mg/kg): 44.1 ng/mL and 31.3 ng/mL and 36.7 ng/mL | plasma concentration of Compound A (in vivo; 2.00 h, mean): 37.4 ng/mL | plasma concentration of Compound A (in vivo; 4.00 h, individual mice, 6.645 mg/kg): 5.24 ng/mL and 6.75 ng/mL and 8.65 ng/mL | plasma concentration of Compound A (in vivo; 4.00 h, mean): 6.88 ng/mL | plasma concentration of Compound A (in vivo; 8.00 h, individual mice): BQL | plasma concentration of Compound A (in vivo; 24.0 h, individual mice): BQL | Clinical observation (tolerability) (in vivo; male CD-1 mice, administered dosages (Compound A PO 5.102 mg/kg; Compound I-19 PO 6.645, IP 4.061 mg/kg)): well tolerated | plasma concentration of Compound I-19 (in vivo; single IP 4.061 mg/kg, 0.500 h, individual mice, 4.061 mg/kg): 415 ng/mL and 311 ng/mL and 318 ng/mL | plasma concentration of Compound I-19 (in vivo; single IP 4.061 mg/kg, 0.500 h, mean): 348 ng/mL | plasma concentration of Compound I-19 (in vivo; single IP 4.061 mg/kg, 1.00 h, individual mice, 4.061 mg/kg): 196 ng/mL and 269 ng/mL and 201 ng/mL | plasma concentration of Compound I-19 (in vivo; single IP 4.061 mg/kg, 1.00 h, mean): 222 ng/mL | plasma concentration of Compound I-19 (in vivo; single IP 4.061 mg/kg, 2.00 h, individual mice, 4.061 mg/kg): 39.7 ng/mL and 100 ng/mL and 71.6 ng/mL | plasma concentration of Compound I-19 (in vivo; single IP 4.061 mg/kg, 2.00 h, mean): 70.4 ng/mL | plasma concentration of Compound I-19 (in vivo; single IP 4.061 mg/kg, 4.00 h, mean): 13.1 ng/mL | plasma concentration of Compound I-19 (in vivo; single IP 4.061 mg/kg, 8.00 h, individual mice): 1.39 ng/mL | plasma concentration of Compound I-19 (in vivo; single IP 4.061 mg/kg, 8.00 h, individual mice, 4.061 mg/kg): BQL | plasma concentration of Compound I-19 (in vivo; single IP 4.061 mg/kg, 24.0 h, individual mice): BQL | AUC0-inf of Compound I-19 (in vivo; [5]): 444 ng·h/mL and 589 ng·h/mL and 417 ng·h/mL | AUC0-last of Compound I-19 (in vivo; [5]): 443 ng·h/mL and 588 ng·h/mL and 414 ng·h/mL | Cmax of Compound I-19 (in vivo; [5]): 489 ng/mL and 311 ng/mL and 318 ng/mL | MRT0-inf of Compound I-19 (in vivo; [5]): 49.6 min and 97.2 min and 62.4 min | MRT0-last of Compound I-19 (in vivo; [5]): 48.9 min and 96 min and 61.2 min | T1/2 of Compound I-19 (in vivo; [5]): 27.1 min and 56.5 min and 29.9 min | Tlast of Compound I-19 (in vivo; [5]): 4.00 h (2×) and 8.00 h | Tmax of Compound I-19 (in vivo; [5]): 30 min | AUC0-inf of Compound I-19 (in vivo; [6]): 483 ng·h/mL | AUC0-last of Compound I-19 (in vivo; [6]): 482 ng·h/mL | Cmax of Compound I-19 (in vivo; [6]): 373 ng/mL | MRT0-inf of Compound I-19 (in vivo; [6]): 69.6 min | MRT0-last of Compound I-19 (in vivo; [6]): 69 min | T1/2 of Compound I-19 (in vivo; [6]): 37.9 min | Tlast of Compound I-19 (in vivo; [6]): 5.33 h | Tmax of Compound I-19 (in vivo; [6]): 25 min | plasma concentration of Compound I-19 (in vivo; single PO 6.654 mg/kg (as titled), 0.500 h, mean): 4.55 ng/mL | plasma concentration of Compound I-19 (in vivo; single PO 6.654 mg/kg (as titled), 2.00 h, individual mice): BQL | plasma concentration of Compound I-19 (in vivo; single PO 6.654 mg/kg (as titled), 4.00 h, individual mice): BQL | plasma concentration of Compound I-19 (in vivo; single PO 6.654 mg/kg (as titled), 8.00 h, individual mice): BQL | plasma concentration of Compound I-19 (in vivo; single PO 6.654 mg/kg (as titled), 24.0 h, individual mice): BQL | plasma concentration of Compound I-19 (in vivo; single PO 6.654 mg/kg (as titled), […] h, individual mice): 2.78 ng/mL | plasma concentration of Compound I-19 (in vivo; single PO 6.654 mg/kg (as titled), […] h, individual mice, 6.654 mg/kg): BQL | AUC0-inf of Compound I-19 (in vivo; [7]): 6.92 ng·h/mL | MRT0-inf of Compound I-19 (in vivo; [7]): 50.2 min | MRT0-last of Compound I-19 (in vivo; [7]): 20.8 min and 15 min and 29.9 min | T1/2 of Compound I-19 (in vivo; [7]): 29.1 min | Tmax of Compound I-19 (in vivo; [7]): 30 min | AUC0-last of Compound I-19 (in vivo; [8]): 2.04 ng·h/mL | Cmax of Compound I-19 (in vivo; [8]): 4.27 ng/mL | MRT0-last of Compound I-19 (in vivo; [8]): 21.9 min | Tlast of Compound I-19 (in vivo; [8]): 0.583 h | Tmax of Compound I-19 (in vivo; [8]): 20 min
